From ChEMBL document CHEMBL1201862, “PubChem BioAssay data set” (2004)
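All cell lines were grown in 96-well plates and treated with compound for 48 hours. At the GI50, growth is halved.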 The source made the active and inactive calls. Cut-off read from the data, not from the text of the source: active = GI50 up to about 1.1 µM and inactive = higher.

Legend:
Assay in all cases: NCI tumour cell line growth inhibition, 48 h
KM12 = system: KM12
SNB-19 = system: SNB-19
RPMI-8226 = system: RPMI-8226
MDA-MB-231 = system: MDA-MB-231
Malme-3M = system: Malme-3M
U-251 = system: U-251
MCF7 = system: MCF7
786-0 = system: 786-0
SF-268 = system: SF-268
HOP-62 = system: HOP-62
NCI-H522 = system: NCI-H522
UACC-257 = system: UACC-257
BT-549 = system: BT-549
MOLT-4 = system: MOLT-4
NCI/ADR-RES = system: NCI/ADR-RES
M14 = system: M14
SR = system: SR
SK-MEL-5 = system: SK-MEL-5
HCT-116 = system: HCT-116
MDA-MB-435 = system: MDA-MB-435
IGROV-1 = system: IGROV-1
K562 = system: K562
A549 = system: A549
HT-29 = system: HT-29
HCT-15 = system: HCT-15
SF-295 = system: SF-295
OVCAR-3 = system: OVCAR-3
DU-145 = system: DU-145
HL-60 = system: HL-60
TK-10 = system: TK-10
EKVX = system: EKVX
CCRF-CEM = system: CCRF-CEM
SK-MEL-28 = system: SK-MEL-28
ACHN = system: ACHN
NCI-H460 = system: NCI-H460
SN12C = system: SN12C
OVCAR-8 = system: OVCAR-8
T47D = system: T47D
MDA-N = system: MDA-N
OVCAR-5 = system: OVCAR-5
UACC-62 = system: UACC-62
SK-MEL-2 = system: SK-MEL-2
OVCAR-4 = system: OVCAR-4
RXF 393 = system: RXF 393
HCC 2998 = system: HCC 2998
COLO 205 = system: COLO 205
SW-620 = system: SW-620
A498 = system: A498
UO-31 = system: UO-31
SF-539 = system: SF-539
SNB-75 = system: SNB-75
SK-OV-3 = system: SK-OV-3
Hs-578T = system: Hs-578T
LOX IMVI = system: LOX IMVI
NCI-H226 = system: NCI-H226
NCI-H23 = system: NCI-H23
HOP-92 = system: HOP-92
PC-3 = system: PC-3
CAKI-1 = system: CAKI-1

SMILES: O=C(O)c1ccccc1CC1Cc2cc3c(cc2C1)CCC3
- GI50 (KM12): > 100 µM (inactive)
- GI50 (SNB-19): > 100 µM (inactive)
- GI50 (RPMI-8226): 88.3 µM (inactive)
- GI50 (MDA-MB-231): > 100 µM (inactive)
- GI50 (Malme-3M): > 100 µM (inactive)
- GI50 (U-251): > 100 µM (inactive)
- GI50 (MCF7): > 100 µM (inactive)
- GI50 (786-0): > 100 µM (inactive)
- GI50 (SF-268): > 100 µM (inactive)
- GI50 (HOP-62): > 100 µM (inactive)
- GI50 (NCI-H522): > 100 µM (inactive)
- GI50 (UACC-257): > 100 µM (inactive)
- GI50 (BT-549): > 100 µM (inactive)
- GI50 (MOLT-4): > 100 µM (inactive)
- GI50 (NCI/ADR-RES): > 100 µM (inactive)
- GI50 (M14): > 100 µM (inactive)
- GI50 (SR): > 100 µM (inactive)
- GI50 (SK-MEL-5): > 100 µM (inactive)
- GI50 (HCT-116): > 100 µM (inactive)
- GI50 (MDA-MB-435): > 100 µM (inactive)
- GI50 (IGROV-1): > 100 µM (inactive)
- GI50 (K562): > 100 µM (inactive)
- GI50 (A549): 95.1 µM (inactive)
- GI50 (HT-29): > 100 µM (inactive)
- GI50 (HCT-15): 99.3 µM
- GI50 (SF-295): > 100 µM (inactive)
- GI50 (OVCAR-3): > 100 µM (inactive)
- GI50 (DU-145): > 100 µM (inactive)
- GI50 (HL-60): > 100 µM (inactive)
- GI50 (TK-10): > 100 µM (inactive)
- GI50 (EKVX): > 100 µM (inactive)
- GI50 (CCRF-CEM): > 100 µM (inactive)
- GI50 (SK-MEL-28): > 100 µM (inactive)
- GI50 (ACHN): > 100 µM (inactive)
- GI50 (NCI-H460): > 100 µM (inactive)
- GI50 (SN12C): > 100 µM (inactive)
- GI50 (OVCAR-8): > 100 µM (inactive)
- GI50 (T47D): 33 µM (inactive)
- GI50 (MDA-N): > 100 µM (inactive)
- GI50 (OVCAR-5): > 100 µM (inactive)
- GI50 (UACC-62): 92.3 µM (inactive)
- GI50 (SK-MEL-2): > 100 µM (inactive)
- GI50 (OVCAR-4): 80.5 µM (inactive)
- GI50 (RXF 393): 89.1 µM (inactive)
- GI50 (HCC 2998): > 100 µM (inactive)
- GI50 (COLO 205): > 100 µM (inactive)
- GI50 (SW-620): > 100 µM (inactive)
- GI50 (A498): > 100 µM (inactive)
- GI50 (UO-31): > 100 µM (inactive)
- GI50 (SF-539): > 100 µM (inactive)
- GI50 (SNB-75): > 100 µM (inactive)
- GI50 (SK-OV-3): > 100 µM (inactive)
- GI50 (Hs-578T): > 100 µM (inactive)
- GI50 (LOX IMVI): > 100 µM (inactive)
- GI50 (NCI-H226): > 100 µM (inactive)
- GI50 (NCI-H23): 49.5 µM (inactive)

SMILES: CC(/C=N/N=C1NCCCCN1)=N\N=C1NCCCCN1
- GI50 (KM12): > 100 µM (inactive)
- GI50 (SNB-19): > 100 µM (inactive)
- GI50 (RPMI-8226): > 100 µM (inactive)
- GI50 (MDA-MB-231): > 100 µM (inactive)
- GI50 (Malme-3M): 35.8 µM (inactive)
- GI50 (U-251): > 100 µM (inactive)
- GI50 (MCF7): 64.9 µM (inactive)
- GI50 (786-0): > 100 µM (inactive)
- GI50 (SF-268): > 100 µM (inactive)
- GI50 (HOP-62): > 100 µM (inactive)
- GI50 (NCI-H522): > 100 µM (inactive)
- GI50 (UACC-257): 47.6 µM (inactive)
- GI50 (BT-549): > 100 µM (inactive)
- GI50 (MOLT-4): 87.3 µM (inactive)
- GI50 (NCI/ADR-RES): > 100 µM (inactive)
- GI50 (M14): 18.2 µM (inactive)
- GI50 (SR): 73.3 µM (inactive)
- GI50 (HOP-92): 37.9 µM (inactive)
- GI50 (SK-MEL-5): 49.2 µM (inactive)
- GI50 (HCT-116): 86.3 µM (inactive)
- GI50 (MDA-MB-435): 47.9 µM (inactive)
- GI50 (IGROV-1): > 100 µM (inactive)
- GI50 (K562): 37.1 µM (inactive)
- GI50 (A549): > 100 µM (inactive)
- GI50 (HT-29): 84.1 µM (inactive)
- GI50 (HCT-15): > 100 µM
- GI50 (SF-295): 47.2 µM (inactive)
- GI50 (OVCAR-3): > 100 µM (inactive)
- GI50 (TK-10): > 100 µM (inactive)
- GI50 (EKVX): > 100 µM (inactive)
- GI50 (CCRF-CEM): > 100 µM (inactive)
- GI50 (SK-MEL-28): > 100 µM (inactive)
- GI50 (ACHN): > 100 µM (inactive)
- GI50 (NCI-H460): > 100 µM (inactive)
- GI50 (SN12C): > 100 µM (inactive)
- GI50 (OVCAR-8): > 100 µM (inactive)
- GI50 (T47D): > 100 µM (inactive)
- GI50 (MDA-N): 52.2 µM (inactive)
- GI50 (OVCAR-5): > 100 µM (inactive)
- GI50 (UACC-62): > 100 µM (inactive)
- GI50 (PC-3): 87.7 µM (inactive)
- GI50 (OVCAR-4): > 100 µM (inactive)
- GI50 (RXF 393): > 100 µM (inactive)
- GI50 (HCC 2998): > 100 µM (inactive)
- GI50 (COLO 205): 22.3 µM (inactive)
- GI50 (SW-620): > 100 µM (inactive)
- GI50 (UO-31): > 100 µM (inactive)
- GI50 (SF-539): > 100 µM (inactive)
- GI50 (CAKI-1): > 100 µM (inactive)
- GI50 (SNB-75): > 100 µM (inactive)
- GI50 (SK-OV-3): > 100 µM (inactive)
- GI50 (Hs-578T): > 100 µM (inactive)
- GI50 (LOX IMVI): 16.7 µM (inactive)
- GI50 (NCI-H226): > 100 µM (inactive)
- GI50 (NCI-H23): > 100 µM (inactive)

SMILES: C[N+]1(CCN=C=NC2CCCCC2)CCOCC1
- GI50 (KM12): > 100 µM (inactive)
- GI50 (SNB-19): > 100 µM (inactive)
- GI50 (RPMI-8226): > 100 µM (inactive)
- GI50 (MDA-MB-231): > 100 µM (inactive)
- GI50 (Malme-3M): > 100 µM (inactive)
- GI50 (U-251): > 100 µM (inactive)
- GI50 (MCF7): > 100 µM (inactive)
- GI50 (786-0): > 100 µM (inactive)
- GI50 (SF-268): > 100 µM (inactive)
- GI50 (HOP-62): > 100 µM (inactive)
- GI50 (NCI-H522): > 100 µM (inactive)
- GI50 (UACC-257): > 100 µM (inactive)
- GI50 (BT-549): > 100 µM (inactive)
- GI50 (MOLT-4): > 100 µM (inactive)
- GI50 (NCI/ADR-RES): > 100 µM (inactive)
- GI50 (M14): > 100 µM (inactive)
- GI50 (SR): > 100 µM (inactive)
- GI50 (HOP-92): > 100 µM (inactive)
- GI50 (SK-MEL-5): > 100 µM (inactive)
- GI50 (HCT-116): > 100 µM (inactive)
- GI50 (MDA-MB-435): > 100 µM (inactive)
- GI50 (IGROV-1): > 100 µM (inactive)
- GI50 (K562): > 100 µM (inactive)
- GI50 (A549): > 100 µM (inactive)
- GI50 (HT-29): > 100 µM (inactive)
- GI50 (HCT-15): > 100 µM
- GI50 (SF-295): > 100 µM (inactive)
- GI50 (OVCAR-3): > 100 µM (inactive)
- GI50 (DU-145): > 100 µM (inactive)
- GI50 (HL-60): > 100 µM (inactive)
- GI50 (TK-10): > 100 µM (inactive)
- GI50 (EKVX): > 100 µM (inactive)
- GI50 (CCRF-CEM): > 100 µM (inactive)
- GI50 (SK-MEL-28): > 100 µM (inactive)
- GI50 (ACHN): > 100 µM (inactive)
- GI50 (NCI-H460): > 100 µM (inactive)
- GI50 (SN12C): 22.9 µM (inactive)
- GI50 (OVCAR-8): > 100 µM (inactive)
- GI50 (T47D): > 100 µM (inactive)
- GI50 (OVCAR-5): > 100 µM (inactive)
- GI50 (UACC-62): > 100 µM (inactive)
- GI50 (PC-3): > 100 µM (inactive)
- GI50 (SK-MEL-2): > 100 µM (inactive)
- GI50 (OVCAR-4): > 100 µM (inactive)
- GI50 (RXF 393): > 100 µM (inactive)
- GI50 (COLO 205): > 100 µM (inactive)
- GI50 (SW-620): > 100 µM (inactive)
- GI50 (A498): > 100 µM (inactive)
- GI50 (UO-31): > 100 µM (inactive)
- GI50 (SF-539): > 100 µM (inactive)
- GI50 (CAKI-1): > 100 µM (inactive)
- GI50 (SNB-75): > 100 µM (inactive)
- GI50 (SK-OV-3): > 100 µM (inactive)
- GI50 (Hs-578T): > 100 µM (inactive)
- GI50 (LOX IMVI): > 100 µM (inactive)
- GI50 (NCI-H226): > 100 µM (inactive)
- GI50 (NCI-H23): > 100 µM (inactive)
